Test results taken from patent US9932340B2, “Substituted indoles” (AbbVie Inc., priority 2014, dated 2018).

Target: SUV420H1 enzyme (Homo sapiens, UniProt Q4FZB7)
Assay: TR-FRET SAH SUV420H1 enzyme inhibition assay
Assay type: biochemical
Conditions: Histone Peptide H4(8-30)me1 and SAM, overnight at room temp, TR-FRET detection of SAH, read-out: TR-FRET SAH_SUV420H1 IC50
Summary of the method: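 SUV420H1 (90 nM) preincubated 30 min with compound (3-fold dilutions, 50 to 0.00075 μM), then H4(8-30)me1 peptide 5 nM and SAM 4 nM added, overnight at room temp. SAH product detected by TR-FRET with Tb anti-SAH antibody and Oregon Green-SAH in RIPA buffer, 4 h; IC50 from Hill fit, asymptotes fixed 0-100%.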

SUV420H1 enzyme, sequence (Q4FZB7 whole entry): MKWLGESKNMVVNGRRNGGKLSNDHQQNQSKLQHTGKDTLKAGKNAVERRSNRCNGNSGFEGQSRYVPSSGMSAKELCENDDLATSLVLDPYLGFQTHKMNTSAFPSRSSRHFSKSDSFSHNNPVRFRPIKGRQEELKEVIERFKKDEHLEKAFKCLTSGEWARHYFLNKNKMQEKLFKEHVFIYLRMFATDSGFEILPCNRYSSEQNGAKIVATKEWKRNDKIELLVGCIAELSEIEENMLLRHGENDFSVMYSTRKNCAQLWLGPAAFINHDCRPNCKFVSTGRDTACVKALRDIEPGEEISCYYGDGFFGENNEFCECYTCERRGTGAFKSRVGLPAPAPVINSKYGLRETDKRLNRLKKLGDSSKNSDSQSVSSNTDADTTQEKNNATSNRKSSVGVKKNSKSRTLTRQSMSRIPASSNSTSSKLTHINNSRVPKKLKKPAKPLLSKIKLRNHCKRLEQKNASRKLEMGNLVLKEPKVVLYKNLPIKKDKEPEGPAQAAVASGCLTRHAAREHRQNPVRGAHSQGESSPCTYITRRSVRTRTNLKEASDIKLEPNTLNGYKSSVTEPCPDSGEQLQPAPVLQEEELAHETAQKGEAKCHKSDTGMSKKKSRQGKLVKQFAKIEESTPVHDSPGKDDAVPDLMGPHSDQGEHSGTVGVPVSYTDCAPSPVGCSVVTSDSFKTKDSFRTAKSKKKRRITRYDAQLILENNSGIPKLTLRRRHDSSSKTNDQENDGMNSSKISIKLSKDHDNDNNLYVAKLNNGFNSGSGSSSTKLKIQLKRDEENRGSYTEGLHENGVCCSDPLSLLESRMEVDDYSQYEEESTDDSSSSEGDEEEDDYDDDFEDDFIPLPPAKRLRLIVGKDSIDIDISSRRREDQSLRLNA

Molecule	IC50 [nM]
N#Cc1ccc(C(=O)NCc2cc3cc(Cl)cc(Cn4cnc5c(N)ncnc54)c3[nH]2)c(F)c1 [Example 284, N-({7-[(6-amino-9H-purin-9-yl)methyl]-5-chloro-1H-indol-2-yl}methyl)-4-cyano-2-fluorobenzamide]	90.8
CS(=O)(=O)c1ccc(-c2ccc(Cn3cnc4c(N)ncnc43)c3[nH]c(CN)cc23)cc1 [Example 81, 9-({2-(aminomethyl)-4-[4-(methylsulfonyl)phenyl]-1H-indol-7-yl}methyl)-9H-purin-6-amine]	334
CC1CCCCC1C(=O)NCc1cc2cc(Cl)cc(Cn3cnc4c(N)ncnc43)c2[nH]1 (stereo not drawn) [Example 132, N-({7-[(6-amino-9H-purin-9-yl)methyl]-5-chloro-1H-indol-2-yl}methyl)-2-methylcyclohexanecarboxamide]	6250
CCC(N)c1cc2cc(Cl)cc(Cn3cnc4c(N)ncnc43)c2[nH]1 (stereo not drawn) [Example 91, 9-{[2-(1-aminopropyl)-5-chloro-1H-indol-7-yl]methyl}-9H-purin-6-amine]	2670
COc1ccc(CC(=O)NCc2cc3cc(Cl)cc(Cn4cnc5c(N)ncnc54)c3[nH]2)cc1 [Example 297, N-({7-[(6-amino-9H-purin-9-yl)methyl]-5-chloro-1H-indol-2-yl}methyl)-2-(4-methoxyphenyl)acetamide]	6040
CC1CC1C(=O)NCc1cc2cc(Cl)cc(Cn3cnc4c(N)ncnc43)c2[nH]1 (stereo not drawn) [Example 109, N-({7-[(6-amino-9H-purin-9-yl)methyl]-5-chloro-1H-indol-2-yl}methyl)-2-methylcyclopropanecarboxamide]	10600
Nc1ncnc2c1ncn2Cc1cc(Cl)cc2cc(CNC(=O)c3ccccc3OC(F)F)[nH]c12 [Example 261, N-({7-[(6-amino-9H-purin-9-yl)methyl]-5-chloro-1H-indol-2-yl}methyl)-2-(difluoromethoxy)benzamide]	1990
CC(=O)N1CCC=C(c2cc(Cn3cnc4c(N)ncnc43)c3[nH]c(CN)cc3c2)C1 [Example 16, 1-[5-{2-(aminomethyl)-7-[(6-amino-9H-purin-9-yl)methyl]-1H-indol-5-yl}-3,6-dihydropyridin-1(2H)-yl]ethanone]	440
NCc1cc2cc(C3=CCC(F)(F)CC3)cc(Cn3cnc4c(N)ncnc43)c2[nH]1 [Example 14, 9-{[2-(aminomethyl)-5-(4,4-difluorocyclohex-1-en-1-yl)-1H-indol-7-yl]methyl}-9H-purin-6-amine]	186
Nc1ncnc2c1ncn2Cc1cc(Cl)cc2cc(CNC(=O)c3cccc(Cl)c3)[nH]c12 [Example 222, N-({7-[(6-amino-9H-purin-9-yl)methyl]-5-chloro-1H-indol-2-yl}methyl)-3-chlorobenzamide]	3540
CNCc1cc2cc(Cl)cc(Cn3cnc4c(N)ncnc43)c2[nH]1 [Example 89, 9-({5-chloro-2-[(methylamino)methyl]-1H-indol-7-yl}methyl)-9H-purin-6-amine]	2600
4-{[({7-[(6-amino-9H-purin-9-yl)methyl]-5-chloro-1H-indol-2-yl}methyl)amino]methyl}-N,N-dimethylbenzamide [Example 318]	3490

Further lines, results first:

IC50 [nM]	Molecule
> 50000	Nc1ncnc2c1ncn2Cc1cc(Cl)cc2cc(CNC(=O)c3c(O)cccc3F)[nH]c12 [Example 229, N-({7-[(6-amino-9H-purin-9-yl)methyl]-5-chloro-1H-indol-2-yl}methyl)-2-fluoro-6-hydroxybenzamide]
> 50000	Nc1ncnc2c1ncn2Cc1cc(Cl)cc2cc(CNC(=O)Cc3ccc(F)cc3)[nH]c12 [Example 254, N-({7-[(6-amino-9H-purin-9-yl)methyl]-5-chloro-1H-indol-2-yl}methyl)-2-(4-fluorophenyl)acetamide]
29100	Nc1ncnc2c1ncn2Cc1cc(Cl)cc2cc(CNC(=O)c3cnc4[nH]ccc4c3)[nH]c12 [Example 347, N-({7-[(6-amino-9H-purin-9-yl)methyl]-5-chloro-1H-indol-2-yl}methyl)-1H-pyrrolo[2,3-b]pyridine-5-carboxamide]
356	N#CCc1ccc(-c2cc(Cn3cnc4c(N)ncnc43)c3[nH]c(CN)cc3c2)cc1 [Example 45, (4-{2-(aminomethyl)-7-[(6-amino-9H-purin-9-yl)methyl]-1H-indol-5-yl}phenyl)acetonitrile]
6410	Nc1ncnc2c1ncn2Cc1cc(Cl)cc2cc(CNC(=O)C3CCCC3)[nH]c12 [Example 119, N-({7-[(6-amino-9H-purin-9-yl)methyl]-5-chloro-1H-indol-2-yl}methyl)cyclopentanecarboxamide]
2040	Nc1ncnc2c1ncn2Cc1cc(Cl)cc2cc(CNC(=O)c3cc4[nH]nnc4cc3F)[nH]c12 [Example 334, N-({7-[(6-amino-9H-purin-9-yl)methyl]-5-chloro-1H-indol-2-yl}methyl)-5-fluoro-1H-benzotriazole-6-carboxamide]
910	Cc1noc(C2CC2)c1C(=O)NCc1cc2cc(Cl)cc(Cn3cnc4c(N)ncnc43)c2[nH]1 [Example 190, N-({7-[(6-amino-9H-purin-9-yl)methyl]-5-chloro-1H-indol-2-yl}methyl)-5-cyclopropyl-3-methyl-1,2-oxazole-4-carboxamide]
1810	NCc1cc2c(-c3ccccc3Cl)ccc(Cn3cnc4c(N)ncnc43)c2[nH]1 [Example 72, 9-{[2-(aminomethyl)-4-(2-chlorophenyl)-1H-indol-7-yl]methyl}-9H-purin-6-amine]
2640	Cc1ccccc1CNCc1cc2cc(Cl)cc(Cn3cnc4c(N)ncnc43)c2[nH]1 [Example 242, 9-[(5-chloro-2-{[(2-methylbenzyl)amino]methyl}-1H-indol-7-yl)methyl]-9H-purin-6-amine]
7920	Cc1sccc1C(=O)NCc1cc2cc(Cl)cc(Cn3cnc4c(N)ncnc43)c2[nH]1 [Example 156, N-({7-[(6-amino-9H-purin-9-yl)methyl]-5-chloro-1H-indol-2-yl}methyl)-2-methylthiophene-3-carboxamide]
1180	NCc1cc2c(-c3ccccc3F)ccc(Cn3cnc4c(N)ncnc43)c2[nH]1 [Example 74, 9-{[2-(aminomethyl)-4-(2-fluorophenyl)-1H-indol-7-yl]methyl}-9H-purin-6-amine]
378	N#Cc1ccc(C(=O)NCc2cc3cc(Cl)cc(Cn4cnc5c(N)ncnc54)c3[nH]2)cc1 [Example 272, N-({7-[(6-amino-9H-purin-9-yl)methyl]-5-chloro-1H-indol-2-yl}methyl)-4-cyanobenzamide]
236	CS(=O)(=O)Nc1ccc(-c2cc(Cn3cnc4c(N)ncnc43)c3[nH]c(CN)cc3c2)cc1 [Example 41, N-(4-{2-(aminomethyl)-7-[(6-amino-9H-purin-9-yl)methyl]-1H-indol-5-yl}phenyl)methanesulfonamide]
12900	Nc1ncnc2c1ncn2Cc1cc(Cl)cc2cc(CNC(=O)CCc3ccccc3)[nH]c12 [Example 291, N-({7-[(6-amino-9H-purin-9-yl)methyl]-5-chloro-1H-indol-2-yl}methyl)-3-phenylpropanamide]
16300	Nc1ncnc2c1ncn2Cc1cc(Cl)cc2cc(CNCCC(=O)O)[nH]c12 [Example 96, 3-[({7-[(6-amino-9H-purin-9-yl)methyl]-5-chloro-1H-indol-2-yl}methyl)amino]propanoic acid]
